From US5753648A, “Tricyclic benzazepine vasopressin antagonists” (American Cyanamid Company, priority 1996, dated 1998) come the findings set out here.

One assay deals with T1, oxytocin receptors (Rattus norvegicus, UniProt P70536).
T1 sequence (P70536 1-388): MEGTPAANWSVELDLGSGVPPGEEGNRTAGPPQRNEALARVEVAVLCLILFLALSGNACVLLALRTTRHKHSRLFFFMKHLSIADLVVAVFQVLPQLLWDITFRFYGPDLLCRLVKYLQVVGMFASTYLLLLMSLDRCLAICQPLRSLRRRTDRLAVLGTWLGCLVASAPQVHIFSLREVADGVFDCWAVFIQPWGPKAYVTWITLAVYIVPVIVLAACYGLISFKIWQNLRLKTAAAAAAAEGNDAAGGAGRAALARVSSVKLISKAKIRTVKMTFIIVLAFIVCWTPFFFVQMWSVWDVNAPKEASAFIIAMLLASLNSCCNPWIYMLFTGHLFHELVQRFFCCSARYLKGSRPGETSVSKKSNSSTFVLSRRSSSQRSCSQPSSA
Briefly: Oxytocin Receptor Binding.

In a further assay the target is Rat Hepatic V1 Receptors (Rattus norvegicus, UniProt P30560). Briefly: Binding Assay to Rat Hepatic V1 Receptors. An outline of the steps:
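Rat liver plasma membranes (20 μg protein, sucrose-gradient isolated) were incubated 120 min at room temperature with [3H]vasopressin (0.8 nM as added) in Tris-HCl buffer with MgCl2, BSA and protease inhibitors. Nonspecific binding was defined with unlabeled phenylalanylvasopressin. Bound radioactivity was collected by filtration and counted by scintillation, and IC50 was from competition analysis.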

Assay [1] concerns the target T2, Human V2 Vasopressin Receptor (Homo sapiens, UniProt P30518).
T2 construct: expressed in transfected cells; host or cells: mouse fibroblast cell line LV-2
The assay can be described thus: Binding to Membranes of Mouse Fibroblast Cell Line (LV-2) Transfected with the cDNA Expressing the Human V2 Vasopressin Receptor. Particulars: ** LV-2 cells transfected with human V2 receptor cDNA; read-out: V2 IC50 (**human V2 receptor). The procedure:
Binding to Membranes of Mouse Fibroblast Cell Line (LV-2) Transfected with the cDNA Expressing the Human V2 Vasopressin Receptor Membrane Preparation
Flasks of 175 ml capacity, containing attached cells grown to confluence, are cleared of culture medium by aspiration. The flasks containing the attached cells are rinsed with 2×5 ml of phosphate buffered saline (PBS) and the liquid aspirated off each time. Finally, 5 ml of an enzyme free dissociation Hank's based solution (Specialty Media, Inc., Lafayette, N.J.) is added and the flasks are left undisturbed for 2 min. The content of all flasks is poured into a centrifuge tube and the cells pelleted at 300×g for 15 min. The Hank's based solution is aspirated off and the cells homogenized with a polytron at setting #6 for 10 sec in 10.0 mM Tris.HCl buffer, pH 7.4 containing 0.25M sucrose and 1.0 mM EDTA. The homogenate is centrifuged at 1500×g for 10 min to remove ghost membranes. The supernatant fluid is centrifuged at 100,000×g for 60 min to pellet the receptor protein. Upon completion, the pellet is resuspended in a small volume of 50.0 mM Tris.HCl buffer, pH 7.4. The protein content is determined by the Lowry method and the receptor membranes are suspended in 50.0 mM Tris.HCl buffer containing 0.1 mM phenylmethylsulfonylfluoride (PMSF) and 0.2% bovine serum albumin (BSA) to give 2.5 mg receptor protein per ml of suspension.
For binding experiments, the following is added in μl volume to wells of a 96 well format of a microtiter plate: 100.0 μl of 100.0 mM Tris.HCl buffer containing 0.2% heat inactivated BSA, 10.0 mM MgCl2 and a mixture of protease inhibitors: leupeptin, 1.0 mg %; aprotinin, 1.0 mg %; 1,10-phenanthroline, 2.0 mg %; trypsin inhibitor, 10.0 mg % and 0.1 mM PMSF, 20.0 μl of [^3 H] Arginine^8, vasopressin (S.A. 75.0 Ci/mmole) at 0.8 nM and the reaction initiated by the addition of 80.0 μl of tissue membranes (200.0 μg tissue protein). The plates are left undisturbed on the bench top for 120 min to reach equilibrium. Non specific binding is assessed in the presence of 1.0 μm of unlabeled ligand, added in 20 μl volume. For test compounds, these are solubilized in 50% dimethylsulfoxide (DMSO) and added in 20.0 μl volume to a final incubation volume of 200 μl. Upon completion of binding, the content of each well is filtered off, using a Brandel® cell Harvester (Gaithersburg, Md.). The radioactivity trapped on the filter disk by the ligand-receptor complex is assessed by liquid scintillation counting in a Packard LS Counter, with an efficiency of 65% for tritium. The data are analyzed for IC50 values by the LUNDON-2 program for competition (LUNDON SOFTWARE, Ohio).

SMILES strings stand for the structures.

T2 sequence (P30518 whole entry): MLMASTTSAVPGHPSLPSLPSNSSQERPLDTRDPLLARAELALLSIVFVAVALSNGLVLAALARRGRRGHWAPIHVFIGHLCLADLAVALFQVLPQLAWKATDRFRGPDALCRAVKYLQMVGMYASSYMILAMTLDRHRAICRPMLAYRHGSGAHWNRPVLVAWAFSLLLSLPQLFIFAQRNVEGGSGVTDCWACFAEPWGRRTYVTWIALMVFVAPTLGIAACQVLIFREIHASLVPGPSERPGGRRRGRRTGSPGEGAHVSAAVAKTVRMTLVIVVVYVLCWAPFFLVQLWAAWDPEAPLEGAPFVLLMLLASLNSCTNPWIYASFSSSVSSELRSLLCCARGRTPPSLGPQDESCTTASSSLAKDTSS
Rat Hepatic V1 Receptors, sequence (P30560 whole entry): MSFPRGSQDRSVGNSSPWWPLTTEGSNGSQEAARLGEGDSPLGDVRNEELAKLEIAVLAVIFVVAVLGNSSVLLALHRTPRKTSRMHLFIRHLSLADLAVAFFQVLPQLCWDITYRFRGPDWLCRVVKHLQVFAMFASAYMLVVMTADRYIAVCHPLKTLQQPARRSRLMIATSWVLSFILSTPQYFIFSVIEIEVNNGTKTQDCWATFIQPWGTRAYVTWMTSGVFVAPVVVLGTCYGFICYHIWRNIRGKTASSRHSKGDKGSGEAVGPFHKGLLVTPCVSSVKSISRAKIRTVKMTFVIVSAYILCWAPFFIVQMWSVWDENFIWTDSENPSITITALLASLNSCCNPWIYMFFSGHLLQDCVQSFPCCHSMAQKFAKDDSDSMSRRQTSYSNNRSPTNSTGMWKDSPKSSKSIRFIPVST
Method for oxytocin receptors: Female Sprague-Dawley rats weighing approximately 200-250 g are injected intramuscularly (i.m.) with 0.3 mg/kg of body weight of diethylstilbestrol (DES). The rats are sacrificed 18 hours later under pentobarbital anesthesia. The uteri are dissected out, cleaned of fat and connective tissues and rinsed in 50 ml of normal saline. The tissue pooled from six rats is homogenized in 50 ml of 0.01 mM Tris.HCl, containing 0.5 mM dithiothreitol and 1.0 mM EDTA, adjusted to pH 7.4, using a polytron at setting 6 with three passes of 10 sec each. The homogenate is passed through two (2) layers of cheesecloth and the filtrate centrifuged at 1000×g for 10 min. The clear supernatant is removed and recentrifuged at 165,000×g for 30 min. The resulting pellet containing the oxytocin receptors is resuspended in 50.0 mM Tris.HCl containing 5.0 mM MgCl2 at pH 7.4, to give a protein concentration of 2.5 mg/ml of tissue suspension. This preparation is used in subsequent binding assays with [^3 H]Oxytocin.
Binding of 3,5-[^3 H]Oxytocin ([^3 H]OT) to its receptors is done in microtiter plates using [^3 H]OT, at various concentrations, in an assay buffer of 50.0 mM Tris.HCl, pH 7.4 and containing 5.0 mM MgCl2, and a mixture of protease inhibitors: BSA, 0.1 mg; aprotinin, 1.0 mg; 1,10-phenanthroline, 2.0 mg; trypsin, 10.0 mg; and PMSF, 0.3 mg per 100 ml of buffer solution. Non-specific binding is determined in the presence of 1.0 uM unlabeled OT. The binding reaction is terminated after 60 min., at 220° C., by rapid filtration through glass fiber filters using a Brandel® cell harvester (Bio-medical Research and Development Laboratories, Inc., Gaithersburg, Md.). Competition experiments are conducted at equilibrium using 1.0 nM [^3 H]OT and varying the concentration of the displacing agents. The concentrations of agent displacing 50% of [^3 H]OT at its sites (IC50) are calculated by a computer assisted LUNDON-2 program (LUNDON SOFTWARE INC., Ohio, USA).

For orientation: inhibition means the change of the read-out against control, counted positive when it falls. Usually IC50 stands for the concentration that gives 50% inhibition. For `Cc1ccc(F)cc1C(=O)Nc1ccc(C(=O)N2Cc3cccn3Cc3ccccc32)cn1` [Example 1, N-[5-(5H-Pyrrolo[2,1-c][1,4]benzodiazetin-10(11H)-ylcarbonyl)-2-pyridinyl]-5-fluoro-2-methylbenzamide], on oxytocin receptors (dose 10 μM), the inhibition at 10 µM turned out to be 92%. Moreover, the IC50 at oxytocin receptors (rat uterine membranes, [3H]oxytocin) came out at 200 nM; at Rat Hepatic V1 Receptors, 33 nM; in assay [1] it was 5 nM.
